Results from the supplement of paper PMC10307832.

Assays:
Test in all cases: relative viability (nuclei count vs DMSO), 5 days (fraction); higher = more cells survive
[1] = compound: COc1cc(-c2nn([C@H]3CC[C@H](N4CCN(C(C)=O)CC4)CC3)c3ncnc(N)c23)ccc1NC(=O)c1cc2ccccc2n1C + Cc1nc(NC(=O)N2CCC[C@H]2C(N)=O)sc1-c1ccnc(C(C)(C)C(F)(F)F)c1 [Alpelisib] (partner 2 µM)
Method in brief: (§1)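 Lung cancer cell lines were seeded in 1536-well plates and dosed by pin tool the next day, with either a single drug or a fixed anchor-drug dose combined with five library-drug doses (not always all listed) spaced in √10 steps. Five days later, one step fixed the cells and stained their nuclei (final 0.05% Triton X-100, 1% formaldehyde, 1 ug/ml Hoechst), and nuclei were counted on 4× images. Relative viability is the nuclei count in treated wells divided by the count in vehicle wells, and each value is the median of duplicate plates.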

[2] = compound: CO[C@@H]1[C@H](N(C)C(=O)c2ccccc2)C[C@H]2O[C@]1(C)n1c3ccccc3c3c4c(c5c6ccccc6n2c5c31)C(=O)NC4 [Midostaurin] + CC(=O)c1c(C)c2cnc(Nc3ccc(N4CCNCC4)cn3)nc2n(C2CCCC2)c1=O [Palbociclib] (partner 0.5 µM)
Method in brief: as §1

[3] = compound: COc1cc(-c2nn([C@H]3CC[C@H](N4CCN(C(C)=O)CC4)CC3)c3ncnc(N)c23)ccc1NC(=O)c1cc2ccccc2n1C + O=C(CCCCCCC(=O)Nc1ccccc1)NO [Vorinostat] (partner 1 µM)
Method in brief: as §1

[4] = compound: COc1cc(-c2nn([C@H]3CC[C@H](N4CCN(C(C)=O)CC4)CC3)c3ncnc(N)c23)ccc1NC(=O)c1cc2ccccc2n1C + CS(=O)(=O)CCNCc1ccc(-c2ccc3ncnc(Nc4ccc(OCc5cccc(F)c5)c(Cl)c4)c3c2)o1 [Lapatinib] (partner 2 µM)
Method in brief: as §1

[5] = compound: COc1cc(-c2nn([C@H]3CC[C@H](N4CCN(C(C)=O)CC4)CC3)c3ncnc(N)c23)ccc1NC(=O)c1cc2ccccc2n1C + Nc1ncn([C@H]2C[C@H](O)[C@@H](CO)O2)c(=O)n1 [Decitabine] (partner 2 µM)
Method in brief: as §1

| Cell Line | relative viability ([1]; first compound 0.0128 µM) | relative viability ([1]; first compound 0.04048 µM) | relative viability ([1]; first compound 0.128 µM) | relative viability ([1]; first compound 1.28 µM) | relative viability ([2]; first compound 0.01 µM) | relative viability ([2]; first compound 0.03162 µM) | relative viability ([2]; first compound 0.1 µM) | relative viability ([2]; first compound 0.3162 µM) | relative viability ([3]; first compound 0.0128 µM) | relative viability ([3]; first compound 0.04048 µM) | relative viability ([3]; first compound 0.128 µM) | relative viability ([3]; first compound 1.28 µM) | relative viability ([4]; first compound 0.0128 µM) | relative viability ([4]; first compound 0.04048 µM) | relative viability ([4]; first compound 0.128 µM) | relative viability ([4]; first compound 1.28 µM) | relative viability ([5]; first compound 0.0128 µM) | relative viability ([5]; first compound 0.04048 µM) | relative viability ([5]; first compound 0.128 µM) | relative viability ([5]; first compound 1.28 µM) |
| --- | --- | --- | --- | --- | --- | --- | --- | --- | --- | --- | --- | --- | --- | --- | --- | --- | --- | --- | --- | --- |
| PC-14 | 1.01 | 0.951 | 0.902 | 0.852 | 0.487 | 0.643 | 0.485 | 0.369 | 0.931 | 0.823 | 0.653 | 0.716 | 0.308 | 0.371 | 0.297 | 0.208 | 0.203 | 0.186 | 0.216 | 0.326 |
| NCI-H650 | 1.49 | 1.34 | 1.12 | 1.05 | 0.347 | 0.34 | 0.318 | 0.313 | 0.633 | 0.709 | 0.443 | 0.517 | 1.14 | 1.36 | 0.843 | 0.837 | 0.319 | 0.35 | 0.304 | 0.306 |
| NCI-H1666 | 0.981 | 0.864 | 0.921 | 0.769 | 0.634 | 0.669 | 0.661 | 0.657 | 1.14 | 0.938 | 1.13 | 1.14 | 0.712 | 0.664 | 0.581 | 0.509 | 0.71 | 0.673 | 0.758 | 0.66 |
| NCI-H2085 | 1.08 | 0.949 | 0.975 | 0.658 | 0.497 | 0.467 | 0.491 | 0.494 | 0.83 | 1.17 | 0.764 | 0.759 | 0.77 | 0.822 | 0.805 | 0.564 | 0.579 | 0.436 | 0.58 | 0.553 |
| NCI-H1734 | 0.684 | 0.636 | 0.716 | 0.573 | 0.334 | 0.38 | 0.373 | 0.351 | 0.873 | 0.787 | 0.783 | 0.852 | 1.12 | 1.04 | 0.959 | 0.871 | 0.521 | 0.468 | 0.516 | 0.479 |
| NCI-H2126 | 0.757 | 0.858 | 0.746 | 0.536 | 0.332 | 0.364 | 0.359 | 0.383 | 0.92 | 0.621 | 0.658 | 0.636 | 0.801 | 0.859 | 0.718 | 0.68 | 0.612 | 0.551 | 0.608 | 0.457 |
| EMC-BAC-2 | 0.749 | 0.743 | 0.696 | 0.514 | 0.489 | 0.531 | 0.489 | 0.456 | 0.466 | 0.602 | 0.418 | 0.504 | 0.909 | 0.935 | 0.842 | 0.801 | 1 | 0.941 | 0.913 | 0.955 |
